This is an account of results in patent publication US20100305134A1, “SPECIFIC INHIBITORS OF PTERIDINE REDUCTASE WITH ANTIPARASITIC ACTION” (priority 2007, published 2010).

Like-named read-outs stand apart in the source and are kept apart here.

The target of one assay is T1, hTS (Homo sapiens, UniProt P04818).
T1 construct: made in house
As to the kind of experiment: TS enzyme inhibition (standard TS assay), human TS. The class given is biochemical. The following applies: NI means no inhibition at 190 μM; read-out: TS h Ki.

The next assay addresses T2, Lm TS (Leishmania major, UniProt P07382).
T2 construct: made in house
Put plainly: biochemical. The format is biochemical.

A further assay concerns the target T3, h DHFR (Homo sapiens, UniProt P00374).
T3 construct: made in house
T3 sequence (P00374 1-187): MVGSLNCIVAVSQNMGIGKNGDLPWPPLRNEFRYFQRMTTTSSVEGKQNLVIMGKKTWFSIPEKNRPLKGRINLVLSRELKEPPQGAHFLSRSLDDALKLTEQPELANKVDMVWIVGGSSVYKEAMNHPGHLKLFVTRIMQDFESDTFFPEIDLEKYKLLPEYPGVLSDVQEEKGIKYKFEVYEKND
Put plainly: DHFR enzyme inhibition (standard DHFR assay), human DHFR. The class given is biochemical.

The next assay concerns the target T4, LmDHFR (Leishmania major, UniProt P07382).
T4 construct: made in house
As to the kind of experiment: biochemical. The following applies: NI means no inhibition at 190 μM; read-out: DHFR Lm Ki.

The next assay has as its target T5, LmPTR1 (Leishmania major, UniProt Q01782).
T5 construct: made in house
T5 sequence (Q01782 1-288): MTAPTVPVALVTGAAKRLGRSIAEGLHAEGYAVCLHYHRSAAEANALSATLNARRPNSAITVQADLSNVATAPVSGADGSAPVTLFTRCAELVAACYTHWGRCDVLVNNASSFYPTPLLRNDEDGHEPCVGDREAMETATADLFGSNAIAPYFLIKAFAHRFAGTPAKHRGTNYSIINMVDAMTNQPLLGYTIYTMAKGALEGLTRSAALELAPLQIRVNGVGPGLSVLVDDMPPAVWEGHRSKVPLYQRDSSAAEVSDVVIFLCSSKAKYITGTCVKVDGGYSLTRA
Put plainly: biochemical. The class given is biochemical. The following applies: NI means no inhibition at 190 μM; read-out: PTR1 Lm Ki.

The next assay deals with TcPTR1 (Trypanosoma cruzi, UniProt O44029). As to the kind of experiment: PTR1 enzyme inhibition (dihydrofolic acid substrate, NADPH cofactor), TcPTR1. The class given is biochemical.
Chain of TcPTR1 (O44029 entry or part of it): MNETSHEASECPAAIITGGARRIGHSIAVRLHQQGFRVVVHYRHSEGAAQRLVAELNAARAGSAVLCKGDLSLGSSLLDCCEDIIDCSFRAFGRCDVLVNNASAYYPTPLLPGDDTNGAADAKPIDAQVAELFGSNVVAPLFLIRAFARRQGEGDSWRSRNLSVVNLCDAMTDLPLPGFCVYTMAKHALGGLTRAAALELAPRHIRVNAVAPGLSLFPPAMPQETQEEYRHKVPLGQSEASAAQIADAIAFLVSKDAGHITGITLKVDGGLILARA
Assay [1] concerns PTR1 overexpressing lines. Put plainly: Parasite growth inhibition, PTR1 overexpressing lines. The following applies: ratio of EC50 from PTR1 overexpressing lines to EC50 from WT lines. The format is cell-based.
For assay [2], the system named is Tripanosoma cruzi amastigote form. As to the kind of experiment: Intracellular growth of Tripanosoma cruzi amastigote form. The class given is cell-based. Also noted: unit of the concentration uncertain. The following applies: 72 h exposure, control 100.
A further assay has as its target TS. As to the kind of experiment: TS enzyme inhibition, three-value table lines (species column not resolvable). The format is biochemical. To be noted: species column (h or Lm) not resolvable; NI means no inhibition at 190 μM, NI marks ⋄ Δ ▴ undefined; read-out: TS Ki (first value of three-value lines).
Setting [3] is: NI means no inhibition at 190 μM; read-out: TS Lm Ki.
Setting [4] is: NI means no inhibition at 190 μM, read-out: DHFR h Ki.
Where [5] appears, read: NI means no inhibition at 190 μM, read-out: PTR1 Tc Ki.

T1 sequence (P04818 whole entry): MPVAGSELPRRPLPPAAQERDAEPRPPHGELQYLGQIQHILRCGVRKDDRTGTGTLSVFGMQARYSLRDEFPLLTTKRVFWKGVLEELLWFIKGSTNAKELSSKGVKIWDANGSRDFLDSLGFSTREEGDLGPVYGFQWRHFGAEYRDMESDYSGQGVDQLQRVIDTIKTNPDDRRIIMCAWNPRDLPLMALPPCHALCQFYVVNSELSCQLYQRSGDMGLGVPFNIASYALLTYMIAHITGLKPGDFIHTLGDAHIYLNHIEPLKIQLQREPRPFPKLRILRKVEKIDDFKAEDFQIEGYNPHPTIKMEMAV
T2 sequence (P07382 whole entry): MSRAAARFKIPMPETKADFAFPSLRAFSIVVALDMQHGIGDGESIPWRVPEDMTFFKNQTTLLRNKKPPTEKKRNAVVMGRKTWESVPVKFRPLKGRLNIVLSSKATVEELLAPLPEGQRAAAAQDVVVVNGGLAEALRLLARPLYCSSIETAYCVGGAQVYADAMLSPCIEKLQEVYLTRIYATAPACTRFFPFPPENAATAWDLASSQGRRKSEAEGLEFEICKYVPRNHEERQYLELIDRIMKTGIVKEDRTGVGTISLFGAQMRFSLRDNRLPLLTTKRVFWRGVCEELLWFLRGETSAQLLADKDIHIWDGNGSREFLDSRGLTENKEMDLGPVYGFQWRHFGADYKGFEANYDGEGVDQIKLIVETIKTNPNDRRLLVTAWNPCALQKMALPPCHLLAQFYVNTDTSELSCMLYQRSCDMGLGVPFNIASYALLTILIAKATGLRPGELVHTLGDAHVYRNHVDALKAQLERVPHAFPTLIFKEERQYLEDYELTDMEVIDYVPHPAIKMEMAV
T4 sequence (P07382 whole entry): as above
Protocol for Lm TS: (§1) The compounds of the invention were tested against the following enzyme library: TcPTR1, LmPTR1, LmDHFR, LcTS, EcTS, CnTS, hTS, DHFR. The proteins were all purified following the known procedures (ref). The enzymes were purified through chromatographic methods that usually require a prepurification step using a ion exchange resin, than the eluted active fractions were pooled and a second purification step follows were a hydrophobic resin and sometimes a gel filtration resin is used as the final step. The protein is characterized using Mass Spectrometry and Specific Activity and concentration is detected. Moreover Km for the substrates is useful to set up the inhibition experiments. In general the protein is stored at −80° C. and defrozen in small quantities when necessary.
Protocol for LmDHFR: as §1
Protocol for LmPTR1: The compounds of the invention were tested against the following enzyme library: TcPTR1, LmPTR1, LmDHFR, LcTS, EcTS, CnTS, hTS, DHFR.
Protocol for TcPTR1: as §1
Protocol for h DHFR: as §1
Protocol for hTS: as §1

Broadly, the Ki is the equilibrium dissociation constant of an inhibitor or competing ligand from its target. On to `CCOC(=O)C1CCCCN1C(=O)c1ccc(NCc2cnc3ccc(C(F)(F)F)cc3n2)cc1` (stereo not drawn), for which the inhibition constant (Ki) on hTS was 12 µM; at Lm TS (setting [3]) it was 86 µM; on h DHFR (setting [4]), above 190 µM; on LmDHFR it was 27 µM; at LmPTR1, 6 µM; on TcPTR1 (setting [5]), 106 µM.

In turn, `CN(Cc1cnc2nc(N)nc(N)c2n1)c1ccc(C(=O)NC(CCC(=O)O)C(=O)O)cc1` (stereo not drawn) yielded a Ki on TcPTR1 of 0.11 µM.

For the molecule `CCOC(=O)c1nc2ccccc2nc1CNc1ccc(C(=O)N2CCC(C(=O)O)CC2C(=O)O)cc1` (stereo not drawn), the inhibitory constant (Ki) is 15 µM at hTS; above 190 µM at Lm TS (setting [3]); 24 µM on h DHFR (setting [4]); 75 µM at LmDHFR; above 190 µM at LmPTR1; 38 µM on TcPTR1 (setting [5]).

With `COC(=O)C1CCN(C(=O)c2ccc(N(C)Cc3cnc4nc(N)nc(N)c4n3)cc2)CC1`, the Ki at Lm TS (read-out: TS Lm Ki; NI means no inhibition at 190 μM) is above 190 µM; on h DHFR, 0.8 µM.

Take `CCc1nc(N)nc(N)c1-c1ccc(Cl)cc1` [Pyr, pyrimetamine]: in assay [1], the RDR is listed as 2.3. Moreover, the “% amastigotes (medium value)” value is 37.4% in assay [2] (10 (unit uncertain)) and 26.3% in assay [2] (20 (unit uncertain)).

Regarding `Cc1cc(C(F)(F)F)cc2nc(-c3ccccc3)c(CNc3ccc(C(=O)N4CCC(C(=O)O)CC4)cc3)nc12`, the inhibition constant (Ki) at hTS was 13 µM; on Lm TS (setting [3]), above 190 µM; at h DHFR (setting [4]) it was 54 µM; on LmDHFR, 17 µM; at TcPTR1 (setting [5]), 20 µM.

Consider `COC(=O)C1CCN(C(=O)c2ccc(N(CCO)Cc3cnc4nc(N)nc(N)c4n3)cc2)CC1`, for which, at TS, the Ki is 64.5 µM.

With `COC(=O)C1CCN(C(=O)c2ccc(NCc3cnc4nc(N)nc(C)c4n3)cc2)CC1`, the Ki is above 190 µM at Lm TS (setting [3]); 10 µM at h DHFR (setting [4]); 4 µM at LmDHFR; 0.1 µM at LmPTR1; 7 µM on TcPTR1 (setting [5]).

For the molecule `COC(=O)C1CCN(C(=O)c2ccc(NCc3nc4cc(C(F)(F)F)ccc4nc3-c3ccccc3)cc2)C(C(=O)OC)C1` (stereo not drawn), the Ki at hTS was 13 µM; at Lm TS (setting [3]) it was above 190 µM; at h DHFR (setting [4]) it was above 190 µM; on LmDHFR, 88 µM; at LmPTR1, above 190 µM; on TcPTR1 (setting [5]) it was 40 µM.

With `O=C(O)C1CCN(C(=O)c2ccc(NCc3cnc4cccc(C(F)(F)F)c4n3)cc2)CC1`, the Ki on hTS is 41 µM; at Lm TS (setting [3]), above 190 µM; on h DHFR (setting [4]), 56 µM; at LmDHFR it was 40 µM; on LmPTR1, 7 µM; on TcPTR1 (setting [5]), 75 µM.

For `CN(Cc1cnc2nc(N)nc(N)c2n1)c1ccc(C(=O)N[C@@H](CCC(=O)O)C(=O)O)cc1` [Mtx, methotrexate], in assay [1], the RDR came to 104.1.
